Experimental data: ChEMBL document CHEMBL1154544, “Antitumour polyether macrolides: four new halichondrins from the New Zealand deep-water marine sponge Lissodendoryx sp” (Bioorg Med Chem, 2009)
Converted amounts (≈) assume the structure as drawn.

System: P388
Test: Cytotoxicity against mouse P388 cells
Format: functional, cell-based

Compound	IC50
C=C1C[C@@H]2CC[C@@]34C[C@H]5O[C@H]6[C@@H](O3)[C@H]3O[C@H](CC[C@@H]3O[C@H]6[C@H]5O4)CC(=O)O[C@@H]3[C@@H](C)[C@@H]4O[C@@H]5C[C@]6(C[C@@H]7O[C@]8(C[C@H](C)[C@@H]9OC(=O)C[C@@H]9O8)C[C@H](C)[C@@H]7O6)O[C@@H]5C[C@@H]4O[C@H]3C[C@H]3O[C@@H](CC[C@@H]1O2)C[C@@H](C)C3=C	1.1 ng/mL (≈ 1.08 nM)
C=C1C[C@@H]2CC[C@@]34C[C@H]5O[C@H]6[C@@H](O3)[C@H]3O[C@H](CC[C@@H]3O[C@H]6[C@H]5O4)CC(=O)O[C@@H]3[C@@H](C)[C@@H]4O[C@@H]5C[C@]6(C[C@@H]7O[C@]8(C[C@H](C)[C@@H]9O[C@@H]%10CC(C(O)CO)O[C@@H]%10C[C@@H]9O8)C[C@H](C)[C@@H]7O6)O[C@@H]5C[C@@H]4O[C@H]3C[C@H]3O[C@@H](CC[C@@H]1O2)C[C@@H](C)C3=C (some centres not stated) [HOMOHALICHONDRIN B]	0.22 ng/mL (≈ 0.196 nM)
C=C1C[C@@H]2CC[C@@]34C[C@H]5O[C@H]6[C@@H](O3)[C@H]3O[C@H](CC[C@@H]3O[C@H]6[C@H]5O4)CC(=O)O[C@@H]3[C@@H](C)[C@@H]4O[C@@H]5C[C@]6(C[C@@H]7O[C@]8(C[C@H](C)[C@@H]9O[C@H](CC(=O)CCO)[C@H](O)C[C@@H]9O8)C[C@H](C)[C@@H]7O6)O[C@@H]5C[C@@H]4O[C@H]3C[C@H]3O[C@@H](CC[C@@H]1O2)C[C@@H](C)C3=C [ISOHOMOHALICHONDRIN B]	0.18 ng/mL (≈ 0.16 nM)
C=C1C[C@@H]2CC[C@@]34C[C@H]5O[C@H]6[C@@H](O3)[C@H]3O[C@H](CC[C@@H]3O[C@H]6[C@H]5O4)CC(=O)O[C@@H]3[C@@H](C)[C@@H]4O[C@@H]5C[C@]6(C[C@@H]7O[C@]8(C[C@H](C)[C@@H]9O[C@H](CC(C)=O)[C@H](O)C[C@@H]9O8)C[C@H](C)[C@@H]7O6)O[C@@H]5C[C@@H]4O[C@H]3C[C@H]3O[C@@H](CC[C@@H]1O2)C[C@@H](C)C3=C	0.76 ng/mL (≈ 0.695 nM)
C=C1C[C@@H]2CC[C@@]34C[C@H]5O[C@H]6[C@@H](O3)[C@H]3O[C@H](CC[C@@H]3O[C@H]6[C@H]5O4)CC(=O)O[C@@H]3[C@@H](C)[C@@H]4O[C@@H]5C[C@]6(C[C@@H]7O[C@]8(C[C@H](C)[C@@H]9O[C@H]([C@@H](O)C[C@@H](O)CO)C[C@@H]9O8)C[C@H](C)[C@@H]7O6)O[C@@H]5C[C@@H]4O[C@H]3C[C@H]3O[C@@H](CC[C@@H]1O2)C[C@@H](C)C3=C [HALICHONDRIN B]	0.78 ng/mL (≈ 0.702 nM)
C=C1C[C@@H]2CC[C@@]34C[C@H]5O[C@H]6[C@@H](O3)[C@H]3O[C@H](CC[C@@H]3O[C@H]6[C@H]5O4)CC(=O)O[C@@H]3[C@@H](C)[C@@H]4O[C@@H]5C[C@]6(C[C@@H]7O[C@]8(C[C@H](C)[C@@H]9O[C@@H]%10CC(=O)O[C@@H]%10C[C@@H]9O8)C[C@H](C)[C@@H]7O6)O[C@@H]5C[C@@H]4O[C@H]3C[C@H]3O[C@@H](CC[C@@H]1O2)C[C@@H](C)C3=C	1.1 ng/mL (≈ 1.02 nM)
C=C1C[C@@H]2CC[C@@]34C[C@H]5O[C@H]6[C@@H](O3)[C@H]3O[C@H](CC[C@@H]3O[C@H]6[C@H]5O4)CC(=O)O[C@@H]3[C@@H](C)[C@@H]4O[C@@H]5C[C@]6(C[C@@H]7O[C@]8(C[C@H](C)[C@@H]9O[C@@H]%10CC(C(O)CCl)O[C@@H]%10C[C@@H]9O8)C[C@H](C)[C@@H]7O6)O[C@@H]5C[C@@H]4O[C@H]3C[C@H]3O[C@@H](CC[C@@H]1O2)C[C@@H](C)C3=C (some centres not stated)	2 ng/mL (≈ 1.75 nM)
